Source: patent US20260374809A1, “COMPOUNDS USEFUL FOR THE TREATMENT AND/OR CARE OF THE SKIN, HAIR, NAILS AND/OR MUCOUS MEMBRANES” (Lubrizol Advanced Materials, Inc., priority 2022, published 2026)
Where a SMILES comes first, the peptide text is derived from it.

System: Musclebind Like Protein 1 (MBNL1)
Experiment: MBNL1 protein in human dermal fibroblasts (HDFa), immunofluorescence
Type: cell-based
Conditions: HDFa cells; for % Fold induction (FI) (MEAN ± SEM), MBNL1 intensity: 24 hours, basal control = 100; for % MME (MEAN ± SEM), comparative MBNL1 intensity with respect to electrical stimulation: MES = 100, control = 0
Protocol: Musclebind Like Protein 1 (MBNL1) in Human Dermal Fibroblasts (HDF)
The aim of this study was to evaluate the increase of MBNL1 protein in human skin fibroblasts after electrical stimulation, mimicking a microcurrent-like treatment. Topical products able to increase MBNL1 protein amount in fibroblast cells, in a similar way to the microcurrent-like treatment, could induce the same antiaging benefits on the skin avoiding the side-effects of physical microcurrent treatment
Cells were seeded at 100.000 cells/well in 12-well plates over sterile glass slides and incubated at 37 °C, 5% CO2 for 48 hours. After that, electrical stimulation was performed. Glass slides were transferred to 6-well plates and were electro-stimulated (1.5V) for 1 hour using a C-dish device (IonOptix™) at room temperature. An identical 6-well plate with non-stimulated cells were incubated at room temperature for 1 hour. After electrostimulation, glass slides were transferred again to a 12-well plate and incubated at 37 °C, 5% CO2 for 24 hours. Three different replicates were used for each condition.
Cells were seeded at 8.000 cells/well in 96-well plates and incubated at 37 °C, 5% CO2 for 48 hours. After the incubation time, cells were treated with PEP-1 (H-Leu-Pro-Val-Thr-OH) at 0.01 mg/ml, 0.1 mg/ml and 0.5 mg/ml for 24 hours. Cells incubated with medium alone were used as a control. Three replicates were carried out for each condition.
After 24 hours of incubation, cells were washed two times with phosphate buffered saline (PBS), fixed with 4% PFA (paraformaldehyde solution) for 15 minutes and washed again two times. After that, cells were permeabilized with 1% X-Triton solution for 15 minutes and blocked with 5% bovine serum albumin (BSA) solution for 1 hour. Cells were incubated with 1/20 dilution of primary antibody against MBNL1 protein (Sigma) in 5% BSA solution for 2 hours. After the incubation time, cells were washed and incubated with 1/200 dilution of secondary antibody (AlexFluor™ 488) in 5% BSA solution for 1 hour. Finally, cells were washed 3 times and stained with 4′,6-Diamidine-2′-phenylindole dihydrochloride (DAPI) mount solution for nuclei detection. MBNL1 protein quantification were measured as fluorescence intensity of MBNL1 normalized by the number of nuclei for each condition using a confocal microscope (Operetta® confocal microscope, PerkinElmer Inc) using Alexa 488 Green channel (Ex: 460-490 nm/Em: 500-550 nm). Results are expressed as an MBNL1 level that is relative to that of the control condition.
At least, three independent experiments were analyzed in this assay.
Results were calculated using the following formula: […]
For comparative purposes, the effect of the peptide was compared with that of MES. The effect was calculated as follows: […]

Structure (SMILES): CC(C)C[C@H](N)C(=O)N1CCC[C@H]1C(=O)N[C@H](C(=O)N[C@H](C(=O)O)[C@@H](C)O)C(C)C [PEP-1, H-Leu-Pro-Val-Thr-OH] (H-LPVT-OH)
- % Fold induction (FI) (MEAN ± SEM), MBNL1 intensity (0.01 mg/ml): 106.66 ± 2.65%
- % MME (MEAN ± SEM), comparative MBNL1 intensity with respect to electrical stimulation (0.01 mg/ml): 52.73 ± 2.65%
- % Fold induction (FI) (MEAN ± SEM), MBNL1 intensity (0.1 mg/ml): 107.67 ± 1.62%
- % MME (MEAN ± SEM), comparative MBNL1 intensity with respect to electrical stimulation (0.1 mg/ml): 60.73 ± 1.62%
- % Fold induction (FI) (MEAN ± SEM), MBNL1 intensity (0.5 mg/ml): 109.46 ± 2.68%
- % MME (MEAN ± SEM), comparative MBNL1 intensity with respect to electrical stimulation (0.5 mg/ml): 74.90 ± 2.68%
